Source: ChEMBL document CHEMBL1144487 (Bioorg Med Chem, 2007)

Experiments:
[1] = Cytotoxicity against rat NRK 52E cells after 5 days; format: cell-based; conditions: read-out: LC50
[2] = Cytotoxicity against rat K-ras transformed NRK K/1 cells after 5 days; format: cell-based; conditions: NRK K/1, 120 h, read-out: LC50 (the source's name)
[3] = Cytotoxicity against rat H-ras transformed NRK H/1.2 cells after 5 days; format: cell-based; conditions: NRK H/1.2, 120 h, read-out: LC50 (the source's name)
[4] = Cytotoxicity against mouse 3LL cells after 5 days; format: cell-based; conditions: 120 h, read-out: LC50 (the source's name)
[5] = Differential index, LC50 for rat NRK 52E cells to LC50 for rat K-ras transformed NRK K/1 cells; format: ADME, cell-based; conditions: NRK 52E cells versus K-ras transformed NRK K/1 cells
[6] = Differential index, LC50 for rat NRK 52E cells to LC50 for rat H-ras transformed NRK H/1.2 cells; format: ADME, cell-based; conditions: NRK 52E cells versus H-ras transformed NRK H/1.2 cells
[7] = Differential index, LC50 for rat NRK 52E cells to LC50 for mouse 3LL cells; format: ADME, cell-based; conditions: NRK 52E cells versus 3LL cells
Mus musculus [8] = test: Toxicity in nude mouse at 10 mg/kg/day after 7 days; format: organism-based; conditions: in vivo, 168 h
Mus musculus [9] = test: Toxicity in nude mouse at 50 mg/kg/day after 7 days; format: organism-based; conditions: in vivo, 168 h
Mus musculus [10] = test: Toxicity in nude mouse at 100 mg/kg/day after 7 days; format: organism-based; conditions: in vivo, 168 h
NRK [11] = test: Inhibition of tumor growth in CD1 nu/nu mouse implanted with rat K-ras transformed NRK K/1 cells at 100 mg/kg/day, ip for 7 days on day 10 relative to control; format: functional; conditions: route intraperitoneal
[12] = Cytotoxicity against rat N-ras transformed NRK N/4.2 cells after 5 days; format: cell-based; conditions: NRK N/4.2, 120 h, read-out: LC50 (the source's name)
[13] = Differential index, LC50 for rat NRK 52E cells to LC50 for rat N-ras transformed NRK N/4.2 cells; format: ADME, cell-based; conditions: NRK 52E cells versus N-ras transformed NRK N/4.2 cells
Mus musculus [14] = test: Toxicity in nude mouse at 150 mg/kg/day assessed as death after 8 days; format: organism-based; conditions: in vivo, 192 h
Mus musculus [15] = test: Toxicity in nude mouse at 300 mg/kg/day assessed as death after 8 days; format: organism-based; conditions: in vivo, 192 h
NRK [16] = test: Inhibition of tumor growth in CD1 nu/nu mouse implanted with rat K-ras transformed NRK K/1 cells at 150 mg/kg/day, ip after 8 days relative to control; format: functional; conditions: 192 h, route intraperitoneal
[17] = Toxicity in mouse; format: organism-based; conditions: in vivo
NRK [18] = test: Inhibition of tumor growth in CD1 nu/nu mouse implanted with rat K-ras transformed NRK K/1 cells at 300 mg/kg/day, ip after 8 days relative to control; format: functional; conditions: 192 h, route intraperitoneal

| SMILES | CC50 at 120 h [1] | CC50 [2] | CC50 [3] | CC50 [4] | selectivity ratio [5] | selectivity ratio [6] | selectivity ratio [7] | Activity (Mus musculus [8]) | Activity (Mus musculus [9]) | Activity (Mus musculus [10]) | inhibition in vivo at 100 mg/kg/day (NRK [11]) | CC50 [12] | selectivity ratio [13] | Activity (Mus musculus [14]) | Activity (Mus musculus [15]) | inhibition in vivo at 150 mg/kg/day (NRK [16]) | MTD [17] | inhibition in vivo at 300 mg/kg/day (NRK [18]) |
| --- | --- | --- | --- | --- | --- | --- | --- | --- | --- | --- | --- | --- | --- | --- | --- | --- | --- | --- |
| COC(=O)c1[nH]c(-c2ccc3c(n2)C(=O)C(NC(C)=O)=CC3=O)c2nc3ccccc3c-2c1C | 900 nM | 100 nM | 700 nM | > 33000 nM | 9 | 1.3 | < 0.03 | Non-toxic | Non-toxic | Non-toxic | 69% |  |  |  |  |  |  |  |
| CC(=O)NC1=CC(=O)c2ccc(-c3nc(C(=O)OCCC(C)C)cc4c3[nH]c3ccccc34)nc2C1=O | 1620 nM | 90 nM | 1420 nM | 1690 nM | 18 | 1.1 | 1 |  |  |  |  | 1500 nM | 1.1 | Non-toxic | Non-toxic | 88% |  |  |
| NC1=CC(=O)c2ccc(-c3[nH]ccc4c5ccccc5nc3-4)nc2C1=O [DECARBOXYDEMETHYLLAVENDAMYCIN] | 100 nM | 31 nM | 110 nM | 250 nM | 3.2 | 0.9 | 0.4 |  |  |  |  | 60 nM | 1.6 |  |  |  | 400 mg/kg |  |
| CC(=O)NC1=CC(=O)c2ccc(C)nc2C1=O | 2400 nM | 5900 nM | 4400 nM | 2000 nM |  |  |  |  |  |  |  |  |  |  |  |  | < 10 mg/kg |  |
| CCCC(=O)NC1=CC(=O)c2ccc(C)nc2C1=O | 2000 nM | > 3300 nM | > 3300 nM | 2500 nM |  |  |  |  |  |  |  | > 3300 nM |  |  |  |  | < 10 mg/kg |  |
| CCCC(=O)NC1=CC(=O)c2ccc(C=O)nc2C1=O | 3000 nM | > 3300 nM | 3300 nM | 2500 nM |  |  |  |  |  |  |  | > 3300 nM |  |  |  |  | < 10 mg/kg |  |
| CCCCCCCCOC(=O)c1cc2c([nH]c3ccccc32)c(-c2ccc3c(n2)C(=O)C(NC(C)=O)=CC3=O)n1 | > 33000 nM | 250 nM | 7600 nM | > 33000 nM | > 132 | > 4.3 |  |  |  |  |  | 9000 nM | 3.6 | Non-toxic | Non-toxic |  |  | 78% |
| CC(=O)NC1=CC(=O)c2ccc(-c3[nH]c(C(N)=O)cc4c5ccccc5nc3-4)nc2C1=O | 900 nM | 350 nM | 230 nM | 210 nM | 2.5 |  | 4.3 |  |  |  |  | 220 nM | 4.1 |  |  |  | 400 mg/kg |  |
| CC(=O)NC1=CC(=O)c2ccc(-c3[nH]ccc4c5ccccc5nc3-4)nc2C1=O | 400 nM | 440 nM | 400 nM | 3000 nM | 0.9 | 1 | 0.1 |  |  |  |  | 490 nM | 0.8 |  |  |  |  |  |
